Measured values: patent US20070179161A1, “Pyrazolopyrimidine compounds and their use in medicine” (VERNALIS (CAMBRIDGE) LIMITED., priority 2003, published 2007)
Like-named read-outs stand apart in the source and are kept apart here.

Columns and labels:
[1] = target: T1, PDK1 enzyme (Homo sapiens, UniProt O15530); test: PDK1 kinase inhibition assay (33P phosphorylation of synthetic peptide, filter plate); type: biochemical; conditions: 0.01 mM ATP, 60 min at 30° C.; read-out: PDK1 IC50
T1 sequence (O15530 1-556): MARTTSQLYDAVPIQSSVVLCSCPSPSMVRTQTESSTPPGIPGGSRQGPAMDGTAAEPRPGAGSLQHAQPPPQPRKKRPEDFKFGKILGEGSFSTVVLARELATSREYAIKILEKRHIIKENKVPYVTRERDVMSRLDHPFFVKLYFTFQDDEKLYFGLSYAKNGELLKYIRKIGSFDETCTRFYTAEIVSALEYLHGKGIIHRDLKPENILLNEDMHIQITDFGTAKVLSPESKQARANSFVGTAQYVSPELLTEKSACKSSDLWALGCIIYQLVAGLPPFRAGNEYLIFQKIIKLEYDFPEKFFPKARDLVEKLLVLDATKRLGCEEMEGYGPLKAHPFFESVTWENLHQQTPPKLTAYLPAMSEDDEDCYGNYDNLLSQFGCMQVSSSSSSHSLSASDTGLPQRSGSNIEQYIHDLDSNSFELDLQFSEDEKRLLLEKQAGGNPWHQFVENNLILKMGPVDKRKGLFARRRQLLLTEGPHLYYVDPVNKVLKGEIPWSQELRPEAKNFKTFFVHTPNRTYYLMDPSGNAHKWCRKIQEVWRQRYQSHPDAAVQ
Summary of the method: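 PDK1 and inhibitor incubated 60 min at 30° C with 0.01 mM ATP plus 33P-γ-ATP, 0.075 mM peptide, 7.5 mM Mg acetate, 0.1 mg/ml BSA in 0.05 M Tris.HCl pH 7.5. Stopped with phosphoric acid; phosphorylated peptide captured on filter plate and counted by scintillation.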

[2] = target: CDK-2 enzyme, complexed with cyclin A (Homo sapiens, UniProt P24941); test: CDK2 enzyme inhibition assay (33P phosphorylation of peptide […], filter plate); type: biochemical; conditions: CDK-2/cyclin A, 0.1 mM ATP, 40 min at 30° C.
Summary of the method: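 Cyclin A–complexed CDK2 (0.4 U/ml) incubated with inhibitor, 0.03 mM peptide, 0.1 mM ATP plus 33P-γ-ATP in HEPES pH 7.5, 7.5 mM Mg acetate, 0.1 mg/ml BSA, 40 min at 30 °C. Stopped with phosphoric acid; phosphorylated peptide captured on filter plates and counted by scintillation.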

[3] = target: T2, GST-Chk1 enzyme (Homo sapiens, UniProt O14757); test: Chk1 kinase inhibition assay (33P phosphorylation of Chktide, filter plate); type: biochemical; conditions: 0.01 mM ATP, 11 nM GST-Chk1, 40 minutes at 30° C.; read-out: Chk1 IC50
T2 sequence (O14757 1-476): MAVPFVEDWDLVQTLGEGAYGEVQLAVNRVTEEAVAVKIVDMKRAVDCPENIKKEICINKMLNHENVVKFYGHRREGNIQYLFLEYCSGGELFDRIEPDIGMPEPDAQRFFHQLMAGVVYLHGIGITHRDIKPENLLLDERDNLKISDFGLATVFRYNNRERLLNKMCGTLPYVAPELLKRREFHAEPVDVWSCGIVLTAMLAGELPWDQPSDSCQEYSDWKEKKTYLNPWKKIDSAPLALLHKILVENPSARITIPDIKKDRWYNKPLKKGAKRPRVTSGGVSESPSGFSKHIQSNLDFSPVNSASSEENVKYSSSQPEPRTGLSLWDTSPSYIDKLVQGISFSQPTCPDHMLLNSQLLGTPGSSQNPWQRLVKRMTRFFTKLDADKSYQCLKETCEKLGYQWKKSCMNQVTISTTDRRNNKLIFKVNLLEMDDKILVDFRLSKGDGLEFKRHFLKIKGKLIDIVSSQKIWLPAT
Summary of the method: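 Inhibitor and enzyme reacted 40 min at 30 °C, then stopped with 50 mM phosphoric acid. Phosphorylated peptide captured on filter plates and quantified by scintillation counting.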

[4] = Cell growth inhibition assay: cytotoxicity by sulforhodamine B (SRB) assay; type: cell-based; conditions: 96 h
Description: B. Cell Growth Inhibition Assay:
• 1) Determine cell number by haemocytometer. • 2) Using an 8 channel multipipettor, add 160 μl of the cell suspension ([…] or 2×10^4 cells/ml) to each well of a 96-well microtitre plate. • 3) Incubate overnight at 37° C. in a CO2 incubator. Day 2 • 4) Stock solutions of drugs are prepared, and serial dilutions of each drug are performed in medium to give final concentrations in wells. • 5) Using a multipipettor, 40 μl of drug (at 5× final concentration) is added to quadruplicate wells. • 6) Control wells are at either side of the 96 well plates, where 40 μl of medium is added. • 7) Incubate plates in CO2 incubator for 4 days Day 6 • 8) Tip off medium into sink and immerse plate slowly into 10% ice cold trichloroacetic acid (TCA). Leave for about 30 mins on ice. • 9) Wash plates three times in tap water by immersing the plates into baths of tap water and tipping it off. • 10) Dry in incubator. • 11) Add 100 μl of 0.4% SRB in 1% acetic acid to each well (except the last row right hand)of the 96 well plate, this is the 0% control, ie no drug, no stain. The first row will be the 100% control with no drug, but with stain). Leave for 5 mins. • 12) Wash off unbound SRB stain with four washes of 1% acetic acid. • 13) Dry plates in incubator. • 14) Solubilise SRB using 100 μl of 10 mM Tris base and put plates on plate shaker for 5 mins. • 15) Determine absorbance at 540 nm using a plate reader. Calculate mean absorbance for quadruplicate wells and express as a percentage of value for control, untreated wells.
Plot % absorbance values versus log drug concentration and determine the IC50.

[5] = SRB assay, 4 days with drug, cell line not named, read-out: GI50

| SMILES | IC50 [1] [nM] | IC50 [2] [nM] | IC50 [3] [nM] | GI50 [4, 5] [nM] | GI50 [4] [nM] |
| --- | --- | --- | --- | --- | --- |
| N[C@H]1CC[C@H](Nc2cc(Nc3cccc(Cl)c3)n3ncc(Cl)c3n2)CC1 [Example 192] | 3240 | 9 | 2140 | 200 | – |
| CN(C)S(=O)(=O)c1ccc(Nc2cc(O[C@H]3CCNC3)nc3c(Cl)cnn23)cc1 [Example 196] | – | 360 | 4190 | 1000 | – |
| CC(C)c1cnn2c(Nc3ccc(S(=O)(=O)N(C)C)cc3)cc(N[C@H]3CCNC3)nc12 [Example 194] | 4420 | 73 | 210 | 590 | – |
| CCN[C@H]1CC[C@H](Nc2cc(Nc3ccc(S(=O)(=O)N(C)C)cc3)n3ncc(C(C)C)c3n2)CC1 [Example 147] | 10000 | 98 | 4000 | – | 1000 |
| N[C@H]1CC[C@H](Nc2cc(Nc3ccc(Oc4cncc(Cl)c4)cc3)n3ncc(Cl)c3n2)CC1 [Example 191] | – | 18 | – | 40 | – |
| N[C@H]1CC[C@H](Nc2cc(Nc3ccc(Oc4ccccc4)cc3)n3ncc(Br)c3n2)CC1 [Example 181] | 109000 | 101 | 1000 | 90 | – |
| CN(C)S(=O)(=O)c1ccc(Nc2cc(N[C@H]3CC[C@H](N)CC3)nc3c(Br)cnn23)cc1Cl [Example 180] | 2000 | 2 | 830 | – | 330 |
| O=S(=O)(Nc1nccs1)c1ccc(Nc2cc(OC3CCCCC3)nc3ccnn23)cc1 [Example 14] | 24600 | 590 | > 200000 | – | – |
| CC(C)c1cnn2c(Nc3ccc(S(=O)(=O)NCC4CCCO4)cc3)cc(Cl)nc12 (stereo not drawn) [Example 35] | > 200000 | 191 | > 200000 | – | – |
| CC(C)c1cnn2c(Nc3ccc(S(=O)(=O)N(C)C)cc3)cc(N[C@H]3CC[C@H](N(C)C)CC3)nc12 [Example 162] | 5000 | 815 | 12000 | – | – |
| CN(C)S(=O)(=O)c1ccc(Nc2cc(N[C@H]3CC[C@H](N)CC3)nc3c(C4CC4)cnn23)cc1 [Example 128] | 178 | 22 | 1030 | – | – |
| CC(C)c1cnn2c(Nc3ccc(S(=O)(=O)N(C)C)cc3)cc(N3CCC(CN(C)C)CC3)nc12 [Example 105] | > 200000 | 5980 | > 200000 | – | – |
| Cc1cccc(-c2cc(Nc3ccc(S(=O)(=O)Nc4nccs4)cc3)n3nccc3n2)c1 [Example 17] | 31600 | 3170 | > 200000 | – | – |
| CN(C)S(=O)(=O)c1ccc(Nc2cc(N[C@H]3CC[C@H](N)CC3)nc3c(Cl)cnn23)cc1 [Example 148] | 1540 | 4 | 2000 | – | – |
| CC(C)c1cnn2c(Nc3ccc(S(=O)(=O)N(C)CCO)cc3)cc(N3CCC(O)CC3)nc12 [Example 48] | > 200000 | 1460 | > 200000 | – | – |
| CN(C)S(=O)(=O)c1cccc(Nc2cc(N[C@H]3CC[C@H](N)CC3)nc3c(Br)cnn23)c1 [Example 94] | > 200000 | 70 | 27000 | – | – |
| CNS(=O)(=O)c1ccc(Nc2cc(N[C@H]3CC[C@H](N)CC3)nc3c(C(C)C)cnn23)cc1 [Example 61] | 11000 | 32 | 6630 | – | – |
| CC(C)c1cnn2c(Nc3ccc(S(=O)(=O)N(C)C)cc3)cc(OCC3CCCN3C)nc12 (stereo not drawn) [Example 65] | > 200000 | 1090 | > 200000 | – | – |

| SMILES | IC50 [1] [nM] | IC50 [2] [nM] | IC50 [3] [nM] | GI50 [4, 5] [nM] | GI50 [4] [nM] |
| --- | --- | --- | --- | --- | --- |
| CC(C)c1cnn2c(Nc3ccc(S(C)(=O)=O)cc3)ccnc12 [Example 38] | > 200000 | 313 | > 200000 | – | – |
| CC(C)c1cnn2c(Nc3ccc(S(=O)(=O)N(C)C)cc3)cc(N3CCCC3CO)nc12 (stereo not drawn) [Example 104] | > 200000 | 177 | > 200000 | – | – |
| CC[C@H](CO)Nc1cc(Nc2ccc(S(=O)(=O)N(C)C)cc2)n2ncc(C(C)C)c2n1 [Example 83] | > 200000 | 140 | > 200000 | – | – |
| N[C@H]1CC[C@H](Nc2cc(Nc3ccc(Sc4cccs4)cc3)n3ncc(Cl)c3n2)CC1 [Example 193] | 2880 | 47 | 1470 | – | – |
| CN(C)S(=O)(=O)c1ccc(Nc2cc(Cl)nc3c(-c4ccsc4)cnn23)cc1 [Example 156] | 10000 | 24900 | > 200000 | – | – |
| CC(C)c1cnn2c(Nc3ccc(S(=O)(=O)N(C)C)cc3)cc(N[C@H]3CC[C@H](NC(N)=O)CC3)nc12 [Example 141] | 9000 | 142 | 13000 | – | – |
| CC(C)c1cnn2c(Nc3ccc(S(=O)(=O)N(C)C)cc3)cc(CN3CCC(N)CC3)nc12 [Example 157] | 72000 | 37 | 8000 | – | – |
| CCCN(CCC)[C@H]1CC[C@H](Nc2cc(Nc3ccc(S(=O)(=O)N(C)C)cc3)n3ncc(C(C)C)c3n2)CC1 [Example 125] | 19900 | 155 | 20500 | – | – |
| CCc1cnn2c(Nc3ccc(S(=O)(=O)N(C)C)cc3)cc(N[C@H]3CC[C@H](N)CC3)nc12 [Example 57] | 2440 | 69 | 2610 | – | – |
| CCN(CC)c1cc(Nc2ccc(S(=O)(=O)N(C)CCO)cc2)n2ncc(C(C)C)c2n1 [Example 51] | > 200000 | 259 | > 200000 | – | – |
| CC(C)COc1cc(Nc2ccc(S(=O)(=O)N(C)CCO)cc2)n2ncc(C(C)C)c2n1 [Example 42] | > 200000 | 170 | > 200000 | – | – |
| CSc1cnn2c(Nc3ccc(S(=O)(=O)N(C)C)cc3)cc(N[C@H]3CC[C@H](N)CC3)nc12 [Example 197] | – | 55 | – | 580 | – |
| CC(C)c1cnn2c(Nc3ccc(S(=O)(=O)N(C)C)cc3)cc(NC3CCC(N)C3)nc12 (stereo not drawn) [Example 150] | 13000 | 478 | 2000 | – | – |
| CC(C)c1cnn2c(Nc3ccc(S(=O)(=O)N(C)C)cc3)cc(C(=O)NCCN(C)C)nc12 [Example 122] | > 200000 | 3170 | > 200000 | – | – |
| O=S(=O)(Nc1ccccn1)c1ccc(Nc2cc(Cl)nc3ccnn23)cc1 [Example 10] | > 200000 | 1630 | > 200000 | – | – |
| COCCN(C)S(=O)(=O)c1ccc(Nc2cc(Cl)nc3c(C(C)C)cnn23)cc1 [Example 96] | > 200000 | 124 | > 200000 | – | – |
| CC(C)c1cnn2c(Nc3ccc(S(=O)(=O)N(C)C)cc3)cc(NCCN)nc12 [Example 98] | > 200000 | 7500 | 18700 | – | – |
